Laboratory results: patent US4912223A, “1,4-Dihydropyridines” (Nelson Research & Development Co., priority 1988, dated 1990)
Structures can show the parent of a compound that is named as a salt.

How the values were obtained:
[1] = target: T1, DHP Site of the Calcium Channel (Oryctolagus cuniculus, UniProt P07293); experiment: Binding Assay for Drugs Acting at the DHP Site of the Calcium Channel (3H-nitrendipine displacement); settings: washed rabbit skeletal muscle membranes, 0.5×10^-9 M 3H-nitrendipine, 30 min, 25° C., pH 7.4
T1 construct: Washed rabbit skeletal muscle membranes (fraction 2-8X); from tissue; host or cells: rabbit skeletal muscle membranes (fraction 2-8X)
Method: The incubation tubes were rapidly chilled in ice and the contents filtered through Whatman GF/B filters on a Millipore manifold, and the filters were placed in scintillation counting vials with 8 ml of Cytoscint cocktail, disrupted mechanically by shaking for 30 minutes and counted.
Drugs which interact at the DHP site will reduce this specific binding in a dose-dependent manner. The assays for the compounds of this invention were made with logarithmically spaced concentrations, the data were plotted on a probit-concentration plot, and the IC50 read off. The KI of the drug was calculated by standard techniques.

[2] = test system: Systolic arterial blood pressure; experiment: Hypotensive Activity (oral), indirect tail cuff method in spontaneous hypertensive rats (SHR); assay type: in vivo, spontaneous hypertensive rates (SHR); settings: 10 mmol/Kg in polyethylene glycol
Method: Systolic arterial blood pressure was measured with the indirect tail cuff method in spontaneous hypertensive rates (SHR). The change in baseline pressure (170-210 mm Hg) was recorded at various time points following oral administration of 10 mmol/Kg of the test compound in polyethylene glycol.

[3] = Water solubility of salt (dissolution in aqueous NaOH, freeze-dried); assay type: physicochemical
Method: A suspension of 50 mg (0.099 mmol) of the product of Example 2C in 30 ml of water and 1.0 ml (0.099 ) of 0.1N NaOH was stirred at ambient temperature for 15 hours.
All material was dissolved at this time. The mixture was freeze-dried to give 50 mg (quantitative yield) of a foamy water soluble solid: m.p. 215°-220° C.
A suspension of 50 mg (0.076 mmol) of the product of Example 6 in 30 ml of water and 1.52 ml (0.152 mmol) of 0.1N NaOH was stirred at ambient temperature for 15 hours. The material was totally dissolved at this time. The mixture was freeze dried to give 50 mg (quantitative yield) of a foamy water-soluble solid: m.p. 225°-232° C.

T1 sequence (P07293 1-1664 limits assumed): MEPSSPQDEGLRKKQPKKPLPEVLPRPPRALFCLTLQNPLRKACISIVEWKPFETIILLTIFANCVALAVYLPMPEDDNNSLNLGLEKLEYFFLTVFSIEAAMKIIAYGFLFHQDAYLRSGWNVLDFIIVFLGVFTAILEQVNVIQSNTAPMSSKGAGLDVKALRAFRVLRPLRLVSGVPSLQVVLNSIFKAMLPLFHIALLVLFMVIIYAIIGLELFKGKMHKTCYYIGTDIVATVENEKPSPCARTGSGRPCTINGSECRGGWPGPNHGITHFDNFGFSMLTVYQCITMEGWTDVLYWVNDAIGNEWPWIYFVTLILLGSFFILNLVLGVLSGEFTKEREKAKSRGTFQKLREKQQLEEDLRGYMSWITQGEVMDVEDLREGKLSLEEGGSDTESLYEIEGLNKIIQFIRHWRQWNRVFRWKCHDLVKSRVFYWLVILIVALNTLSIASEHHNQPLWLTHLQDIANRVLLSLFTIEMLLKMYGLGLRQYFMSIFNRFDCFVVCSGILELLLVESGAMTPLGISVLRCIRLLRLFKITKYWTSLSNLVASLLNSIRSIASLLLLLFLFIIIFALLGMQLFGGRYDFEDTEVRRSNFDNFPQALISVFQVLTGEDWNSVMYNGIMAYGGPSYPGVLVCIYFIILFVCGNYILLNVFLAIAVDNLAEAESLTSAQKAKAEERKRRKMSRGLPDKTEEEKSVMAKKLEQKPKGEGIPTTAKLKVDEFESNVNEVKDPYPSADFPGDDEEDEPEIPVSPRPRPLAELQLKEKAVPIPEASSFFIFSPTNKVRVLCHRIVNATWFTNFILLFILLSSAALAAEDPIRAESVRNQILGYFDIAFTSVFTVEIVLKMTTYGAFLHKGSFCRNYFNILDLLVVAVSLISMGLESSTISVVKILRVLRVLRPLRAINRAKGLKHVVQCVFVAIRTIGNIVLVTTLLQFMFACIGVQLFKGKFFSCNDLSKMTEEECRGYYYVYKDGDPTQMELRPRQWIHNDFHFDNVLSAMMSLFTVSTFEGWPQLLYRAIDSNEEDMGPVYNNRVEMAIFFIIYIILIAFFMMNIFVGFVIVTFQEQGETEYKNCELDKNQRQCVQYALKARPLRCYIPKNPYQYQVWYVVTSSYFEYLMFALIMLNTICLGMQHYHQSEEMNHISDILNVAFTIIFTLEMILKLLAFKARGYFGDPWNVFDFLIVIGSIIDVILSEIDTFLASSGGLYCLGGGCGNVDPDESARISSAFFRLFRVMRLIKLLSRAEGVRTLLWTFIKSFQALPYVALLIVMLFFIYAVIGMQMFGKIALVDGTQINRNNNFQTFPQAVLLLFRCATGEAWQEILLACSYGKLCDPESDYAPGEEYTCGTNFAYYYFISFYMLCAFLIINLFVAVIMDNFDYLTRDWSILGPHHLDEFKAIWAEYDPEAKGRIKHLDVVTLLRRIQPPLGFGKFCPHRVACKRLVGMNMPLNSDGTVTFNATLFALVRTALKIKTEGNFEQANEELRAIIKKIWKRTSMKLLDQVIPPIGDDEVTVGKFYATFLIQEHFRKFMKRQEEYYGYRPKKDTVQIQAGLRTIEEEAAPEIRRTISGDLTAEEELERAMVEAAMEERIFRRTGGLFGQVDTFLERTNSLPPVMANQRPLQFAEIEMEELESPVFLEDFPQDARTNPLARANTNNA
T1 sequence (P13806 27-960 partner limits assumed): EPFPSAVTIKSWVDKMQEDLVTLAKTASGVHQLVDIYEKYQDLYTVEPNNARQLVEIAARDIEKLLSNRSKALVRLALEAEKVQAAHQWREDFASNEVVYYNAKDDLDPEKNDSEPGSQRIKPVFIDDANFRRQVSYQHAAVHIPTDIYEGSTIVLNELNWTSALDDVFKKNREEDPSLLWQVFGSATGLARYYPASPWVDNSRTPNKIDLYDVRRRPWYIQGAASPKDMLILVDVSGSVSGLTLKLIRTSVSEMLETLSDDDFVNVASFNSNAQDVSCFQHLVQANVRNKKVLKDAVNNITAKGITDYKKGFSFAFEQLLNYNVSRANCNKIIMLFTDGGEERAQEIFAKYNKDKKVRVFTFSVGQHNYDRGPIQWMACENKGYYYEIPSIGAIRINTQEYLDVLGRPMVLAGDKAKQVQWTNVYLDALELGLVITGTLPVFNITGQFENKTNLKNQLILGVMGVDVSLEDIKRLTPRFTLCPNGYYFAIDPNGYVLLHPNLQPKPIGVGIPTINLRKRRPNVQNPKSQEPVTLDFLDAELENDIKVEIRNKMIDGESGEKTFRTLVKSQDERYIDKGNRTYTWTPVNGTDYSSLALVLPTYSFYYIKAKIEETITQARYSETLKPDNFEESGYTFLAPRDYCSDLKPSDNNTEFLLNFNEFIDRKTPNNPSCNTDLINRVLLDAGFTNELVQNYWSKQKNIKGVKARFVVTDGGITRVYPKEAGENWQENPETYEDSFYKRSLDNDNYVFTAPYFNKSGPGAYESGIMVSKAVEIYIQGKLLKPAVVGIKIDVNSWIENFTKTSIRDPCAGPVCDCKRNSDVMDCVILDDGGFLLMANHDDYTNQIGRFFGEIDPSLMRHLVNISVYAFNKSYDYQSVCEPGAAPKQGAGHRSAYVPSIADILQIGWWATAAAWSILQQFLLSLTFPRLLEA
T1 sequence (P13806 961-1106 partner limits assumed): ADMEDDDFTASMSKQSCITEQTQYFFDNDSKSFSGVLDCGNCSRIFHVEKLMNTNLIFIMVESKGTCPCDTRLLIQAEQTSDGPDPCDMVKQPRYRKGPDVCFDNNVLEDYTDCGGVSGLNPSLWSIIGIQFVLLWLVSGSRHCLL
T1 sequence (P19517 whole entry partner): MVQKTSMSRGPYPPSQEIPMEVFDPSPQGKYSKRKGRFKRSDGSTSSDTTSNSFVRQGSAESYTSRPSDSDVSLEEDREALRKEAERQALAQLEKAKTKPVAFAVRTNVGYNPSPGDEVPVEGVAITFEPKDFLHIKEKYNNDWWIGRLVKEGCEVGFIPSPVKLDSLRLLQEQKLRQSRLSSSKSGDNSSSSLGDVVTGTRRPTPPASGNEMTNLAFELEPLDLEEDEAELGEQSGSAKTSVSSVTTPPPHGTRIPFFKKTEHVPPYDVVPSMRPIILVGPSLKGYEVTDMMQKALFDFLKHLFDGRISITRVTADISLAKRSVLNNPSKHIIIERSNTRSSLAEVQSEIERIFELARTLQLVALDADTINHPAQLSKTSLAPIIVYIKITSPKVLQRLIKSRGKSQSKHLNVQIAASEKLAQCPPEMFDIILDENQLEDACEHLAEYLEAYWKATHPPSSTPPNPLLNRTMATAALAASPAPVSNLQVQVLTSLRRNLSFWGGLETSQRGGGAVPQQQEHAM
T1 sequence (P19518 whole entry partner): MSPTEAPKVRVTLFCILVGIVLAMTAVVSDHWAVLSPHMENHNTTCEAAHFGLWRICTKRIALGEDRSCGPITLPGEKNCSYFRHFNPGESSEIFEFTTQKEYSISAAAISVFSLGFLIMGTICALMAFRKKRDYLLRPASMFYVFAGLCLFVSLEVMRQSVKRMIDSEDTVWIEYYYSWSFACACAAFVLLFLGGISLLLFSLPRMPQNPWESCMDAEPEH

SMILES | Ki [1] | Mean Change (Decrease) in Systolic Blood Pressure, 120 min after drug administration [2] | Mean Change (Decrease) in Systolic Blood Pressure, 240 min after drug administration [2] | Mean Change (Decrease) in Systolic Blood Pressure, 360 min after drug administration [2] | Mean Change (Decrease) in Systolic Blood Pressure, 12 min after drug administration [2] | Mean Change (Decrease) in Systolic Blood Pressure, 30 min after drug administration [2] | Mean Change (Decrease) in Systolic Blood Pressure, 60 min after drug administration [2] | solubility in water (in words) [3]
COC(=O)C1=C(C)NC(C)=C(C(=O)OCC2COC(C)(C)O2)C1c1cccc([N+](=O)[O-])c1 (stereo not drawn) [Example 1B, 2,6-Dimethyl-3-(2,2-dimethyl-1,3-dioxolan-4-carbomethoxy)-4-(3-nitrophenyl)-5-carbomethoxy-1,4 dihydropyridine] | 4.5 nM | 36 mm Hg | 34 mm Hg | 19 mm Hg | – | – | – | –
COC(=O)C1=C(C)NC(C)=C(C(=O)OCC2OC(=O)C3OC(C)(C)OC23)C1c1cccc([N+](=O)[O-])c1 (stereo not drawn) [Example 2C, 2,6-Dimethyl-3-(carboriboxy-gamma-lactone dimethylketal)-4-(3-nitrophenyl)-5-carbomethoxy-1,4-dihydropyridine] | 30 nM | 29 mm Hg | 22 mm Hg | 20 mm Hg | 40 mm Hg | 37 mm Hg | 31 mm Hg | –
COC(=O)C1=C(C)NC(C)=C(C(=O)OCC(O)CO)C1c1cccc([N+](=O)[O-])c1 (stereo not drawn) [Example 4, 2,6-Dimethyl-5-carbomethoxy-4-(3-nitrophenyl)-3-(2,3 dihydroxycarbopropoxy)-1,4-dihydropyridine] | 140 nM | 12 mm Hg | 6 mm Hg | 4 mm Hg | 13 mm Hg | 16 mm Hg | 18 mm Hg | –
COC(=O)C1=C(C)NC(C)=C(C(=O)OCC2COC3(CCCC3)O2)C1c1cccc([N+](=O)[O-])c1 (stereo not drawn) [Example 4B, 2,6-Dimethyl-5-carbomethoxy-4-(3-nitrophenyl)-3-(1,4-dioxaspiro[4,4]non-2-yl-carbomethoxy)-1,4-dihydropyridine] | 2.3 nM | 17 mm Hg | 23 mm Hg | 27 mm Hg | – | – | – | –
CC1=C(C(=O)OCC2COC(C)(C)O2)C(c2cccc([N+](=O)[O-])c2)C(C(=O)OCC2COC(C)(C)O2)=C(C)N1 (stereo not drawn) [Example 5, 2,6-Dimethyl-3,5-di-(2,2-dimethyl-1,3-dioxolan-4-carbomethoxy)-4-(3-nitrophenyl)-1,4-dihydropyridine] | 29 nM | 17 mm Hg | 19 mm Hg | 19 mm Hg | 17 mm Hg | 19 mm Hg | 13 mm Hg | –
CC1=C(C(=O)OCC2OC(=O)C3OC(C)(C)OC23)C(c2cccc([N+](=O)[O-])c2)C(C(=O)OCC2OC(=O)C3OC(C)(C)OC23)=C(C)N1 (stereo not drawn) [Example 6, 2,6-Dimethyl-3,5-di(carboriboxy-gamma-lactone dimethylketal)-4-(3-nitrophenyl)-1,4-dihydropyridine] | 93 nM | – | – | – | – | – | – | –
COC(=O)C1=C(C)NC(C)=C(C(=O)OCC(O)C2OC(C)(C)OC2C(=O)O)C1c1cccc([N+](=O)[O-])c1 (stereo not drawn) [Example 11, 2,6-Dimethyl-3-(carboribonic acid-gamma-lactone dimethylketal)(3-nitrophenyl)-5-(carbomethoxy)-1,4-dihydropyridine, sodium salt] | – | – | – | – | – | – | – | water soluble
CC1=C(C(=O)OCC(O)C2OC(C)(C)OC2C(=O)O)C(c2cccc([N+](=O)[O-])c2)C(C(=O)OCC(O)C2OC(C)(C)OC2C(=O)O)=C(C)N1 (stereo not drawn) [Example 13, 2,6-Dimethyl-3,5-di-(carboribonic acid-gamma-lactone dimethylketal)-4-(3-nitrophenyl-1,4-dihydropyridine, disodium salt] | – | – | – | – | – | – | – | water-soluble
COC(=O)C1=C(C)NC(C)=C(C(=O)OC)C1c1ccccc1[N+](=O)[O-] [Nifedipine, nifedipine, reference compound] | – | 11 mm Hg | – | – | 6 mm Hg | 36 mm Hg | 20 mm Hg | –
